According to US20050112573A1, “Method of detecting toxic substance” (priority 2001, published 2005):

Tested on: yeast genes (level of expressed mRNA)
Test: DNA chip analysis of expressed mRNA of yeast genes after 2 h culture with a toxic chemical substance
Type: cell-based, Saccharomyces cerevisiae S288C
Protocol: Yeast (Saccharomyces cerevtisiae S288C (α SUC2mal mel gap2 CUP1)) were cultured at 25° C. on YPD medium (yeast extract 1%, polypepton 2%, glucose 2%). One of toxic chemical substances was added to the cell at logarithmic growth phase, and the cell was further cultured for two hours. Cell was cultured without any chemical substance in the same condition, and was used as control. Concentrations of the chemical substances were defined to inhibit the growth of the yeast but not lead to death.
After the completion of cultivation, the culture was centrifuged to collect the cells. To the cells, sodium acetate buffer (50 mM sodium acetate, 10 mM EDTA, 1% SDS) was added, and the mixture was shaken at 65° C. for five minutes, followed by returning to room temperature, and obtaining the supernatant, which procedure was repeated two times. To the supernatant, ½ amount of a solution of phenol/chloroform was added, and the mixture was centrifuged to give a supernatant, which was added with an equal amount of chloroform, and the mixture was centrifuged to give a supernatant. To the supernatant, an equal amount of isopropanol containing 0.3 M sodium acetate was added, and the mixture was allowed to stand at room temperature for 30 minutes, after which the mixture was centrifuged to give a sediment of the whole RNAs. Seventy % ethanol was added to the sediment, and the mixture was again centrifuged to give a sediment, which was then dried and dissolved in water. mRNA was isolated from the whole RNAs as followings. In view of the fact that a poly A chain is attached to the 3′ terminus of mRNA, a polynucleotide having a poly T structure which was immobilized on the surface of latex beads was used to trap the mRNA, and then the mRNA was washed and eluted with spine column (Oligotex-dT30<Super>mRNA Purification Kit, Takara). Reverse transcription of the mRNA was conducted with a reverse transcriptase (Super Script II Reverse Transcriptase; catalogue No. 18064-014, GibcoBRL) using fluorescence-labeled nucleotides to give cDNAs that were introduced with Cy3-dUTP or Cy5-dUTP during the reverse transcription.
The labeled cDNAs were dissolved in TE buffer (10 mM Tris-HCl/1 mM EDTA, pH8.0), and the solution was dropped on the DNA chip containing the whole genes of yeast (DNA Chip Research Inc. Japan) so that the cDNAs were hybridized on the DNA chip at 65° C. for over 12 hours. The fluoresces intensity of the DNA chip was read with a scanner, and the ratio relative to the fluorescence intensity resulting from the absence of chemical substance was estimated as the following, which is shown in Tables 1 to 9: [formula]
In the Tables, “Intensity” indicated in the rightmost column is a value of the level of expressed mRNA of each gene in control cells as divided by the average level of the expressions of the whole genes.

In the case of `COc1cc(CNC(=O)CCCCC=CC(C)C)ccc1O` [(12), 8-methyl-N-vanillyl-6-nonenamide], the “The level of expressed mRNA in the presence of chemical substance/absence: YHL006C” value (gene YHL006C) was 1.0, the “The level of expressed mRNA in the presence of chemical substance/absence: YHL021C” value (gene YHL021C) was 1.1 and the “The level of expressed mRNA in the presence of chemical substance/absence: YHL037C” value (gene YHL037C) was 0.6. For the same compound, the “level of expressed mRNA in the presence of chemical substance/in its absence” value (from here on “level … of chemical substance/in its absence”) (gene YHR037W) was 1.1, the “The level of expressed mRNA in the presence of chemical substance/absence: YHR083W” value (gene YHR083W) was 0.9 and the “level … of chemical substance/in its absence” value (gene YHR092C) was 1.0. For the same compound, the “The level of expressed mRNA in the presence of chemical substance/absence: YHR095W” value (gene YHR095W) was 0.6, the “The level of expressed mRNA in the presence of chemical substance/absence: YHR105W” value (gene YHR105W) was 0.7 and the “The level of expressed mRNA in the presence of chemical substance/absence: YHR134W” value (gene YHR134W) was 1.0. The “level … of chemical substance/in its absence” value (gene YHR137W) was 0.6, the “The level of expressed mRNA in the presence of chemical substance/absence: YHR180W” value (gene YHR180W) was 0.7 and the “The level of expressed mRNA in the presence of chemical substance/absence: YHR181W” value (gene YHR181W) was 0.8. For the same compound, the “level … of chemical substance/in its absence” value (gene YHR190W) was 1.1, the “level … of chemical substance/in its absence” value (gene YIL033C) was 1.1 and the “The level of expressed mRNA in the presence of chemical substance/absence: YIL108W” value (gene YIL108W) was 0.7. For the same compound, the “The level of expressed mRNA in the presence of chemical substance/absence: YIL127C” value (gene YIL127C) was 0.7, the “level … of chemical substance/in its absence” value (gene YIL154C) was 1.1 and the “The level of expressed mRNA in the presence of chemical substance/absence: YIL165C” value (gene YIL165C) was 0.9. For the same compound, the “level … of chemical substance/in its absence” value (gene YIL167W) was 0.7, the “level … of chemical substance/in its absence” value (gene YIR035C) was 0.9 and the “The level of expressed mRNA in the presence of chemical substance/absence: YJL017W” value (gene YJL017W) was 1.3. The “The level of expressed mRNA in the presence of chemical substance/absence: YJL032W” value (gene YJL032W) was 0.5, the “The level of expressed mRNA in the presence of chemical substance/absence: YJL037W” value (gene YJL037W) was 0.8 and the “The level of expressed mRNA in the presence of chemical substance/absence: YJL049W” value (gene YJL049W) was 0.8. For the same compound, the “level … of chemical substance/in its absence” value (gene YJL088W) was 0.7, the “The level of expressed mRNA in the presence of chemical substance/absence: YJL097W” value (gene YJL097W) was 1.0 and the “level … of chemical substance/in its absence” value (gene YJL132W) was 1.0. For the same compound, the “level … of chemical substance/in its absence” value (gene YJL196C) was 1.1, the “The level of expressed mRNA in the presence of chemical substance/absence: YJR030C” value (gene YJR030C) was 0.9 and the “The level of expressed mRNA in the presence of chemical substance/absence: YJR044C” value (gene YJR044C) was 0.7. For the same compound, the “level … of chemical substance/in its absence” value (gene YJR142W) was 0.8, the “level … of chemical substance/in its absence” value (gene YJR148W) was 0.8 and the “level … of chemical substance/in its absence” value (gene YJR159W) was 1.5. The “The level of expressed mRNA in the presence of chemical substance/absence: YKL051W” value (gene YKL051W) was 0.8, the “The level of expressed mRNA in the presence of chemical substance/absence: YKL059C” value (gene YKL059C) was 0.9 and the “level … of chemical substance/in its absence” value (gene YKL067W) was 0.9. The “The level of expressed mRNA in the presence of chemical substance/absence: YKL090W” value (gene YKL090W) was 0.6, the “The level of expressed mRNA in the presence of chemical substance/absence: YKL094W” value (gene YKL094W) was 0.9 and the “The level of expressed mRNA in the presence of chemical substance/absence: YKL097C” value (gene YKL097C) was 0.6. For the same compound, the “The level of expressed mRNA in the presence of chemical substance/absence: YKL100C” value (gene YKL100C) was 0.9, the “level … of chemical substance/in its absence” value (gene YKR039W) was 1.5 and the “The level of expressed mRNA in the presence of chemical substance/absence: YKR040C” value (gene YKR040C) was 0.8. For the same compound, the “The level of expressed mRNA in the presence of chemical substance/absence: YLR097C” value (gene YLR097C) was 0.8, the “level … of chemical substance/in its absence” value (gene YLR142W) was 0.8 and the “level … of chemical substance/in its absence” value (gene YLR180W) was 0.6. The “The level of expressed mRNA in the presence of chemical substance/absence: YLR226W” value (gene YLR226W) was 0.7, the “level … of chemical substance/in its absence” value (gene YLR273C) was 0.9 and the “level … of chemical substance/in its absence” value (gene YLR300W) was 0.5. For the same compound, the “level … of chemical substance/in its absence” value (gene YLR307W) was 0.7, the “The level of expressed mRNA in the presence of chemical substance/absence: YLR338W” value (gene YLR338W) was 0.6 and the “The level of expressed mRNA in the presence of chemical substance/absence: YLR339C” value (gene YLR339C) was 0.6. For the same compound, the “The level of expressed mRNA in the presence of chemical substance/absence: YLR392C” value (gene YLR392C) was 0.6, the “The level of expressed mRNA in the presence of chemical substance/absence: YLR415C” value (gene YLR415C) was 0.8 and the “The level of expressed mRNA in the presence of chemical substance/absence: YLR427W” value (gene YLR427W) was 0.9. The “The level of expressed mRNA in the presence of chemical substance/absence: YML013W” value (gene YML013W) was 0.9, the “The level of expressed mRNA in the presence of chemical substance/absence: YML029W” value (gene YML029W) was 1.1 and the “The level of expressed mRNA in the presence of chemical substance/absence: YML041C” value (gene YML041C) was 0.8. The “The level of expressed mRNA in the presence of chemical substance/absence: YML079W” value (gene YML079W) was 1.1.
